The source of these data is article PMC9078569, “Understanding the inhibitory mechanism of tea polyphenols against tyrosinase using fluorescence spectroscopy, cyclic voltammetry, oximetry, and molecular simulations” (RSC Advances, 2018).

In general, pIC50 refers to −log10 of the IC50, conventionally taken in molar units.

pIC50: −log10 of the molar value. Where two headings read alike, the source gives them in different places.

The target in assay [1] is T1, Tyrosinase (TYR, EC1.14.18.1) from mushroom (Agaricus bisporus, UniProt C7FF04).
T1 construct: purchased Sigma-Aldrich
The experiment in a line: Inhibition of diphenolase activity of tyrosinase with L-DOPA as substrate (spectroscopy at 475 nm; HPLC for catechin). It is filed as biochemical. As to the method:
The inhibitory activity of the TPs, i.e., catechin, ECG, and EGCG, and a positive control, i.e., KA, against diphenolase activity of tyrosinase was measured with L-DOPA as a substrate using the reported spectroscopy method.[13,24] Assays were conducted in a 96-well micro-plate and a spectrophotometer reader was used to determine the absorbance.[25] Briefly, 6 μL of 1000 unit per mL tyrosinase solution was combined with potassium phosphate buffer (pH 6.5) and 1 mM KA or TPs (both dissolved in potassium phosphate buffer, pH 6.5). After pre-incubating at 25 °C for 5 min, 150 μL of 1 mM L-DOPA aqueous solution was added, followed by incubation at 25 °C for 10 min, again, before the concentration determination of DOPA quinone at 475 nm absorbance. The total volume of each reaction system was 300 μL. […] The inhibitory activity was expressed by IC50 value, which is equal to the concentration of inhibitor at 50% inhibitory rate according to the following equation:[25]1 [drawing 1] where, A is the optical density (OD475) of potassium phosphate buffer; B, C and D are the OD475 of potassium phosphate buffer with tyrosinase, with both TPs and tyrosinase, and with TPs, respectively.

For assay [2], the system named is Tyrosinase (TYR, EC1.14.18.1) from mushroom. In words: Fluorescence quenching of tyrosinase by TPs (Stern–Volmer analysis). In kind it is binding. The note with it: for bimolecular quenching constant (κq): calculated by KSV/τ0, τ0 10^−8 s; for Stern–Volmer quenching constant (KSV): excited at 274 nm, pH 6.5; for binding constant (KA): static quenching equation. Here is the method:
The fluorescence spectrum of the TP-TYR complex was measured according to our previous work.[27] Briefly, 10 mM TP was titrated into 3 mL potassium phosphate buffer (pH 6.5) containing 10 units tyrosinase under continuous stirring and nitrogen exists. After 5 minutes, tyrosinase was excited at 274 nm and the emission spectrum over the range of 280 nm to 400 nm was detected through a 3 nm slit. The emission spectrum of the tyrosinase solution was also directly measured as a background.
Fluorescence quenching mechanism is usually divided into static or dynamic manner.[46] To clarify the quenching mechanism of the interaction between tyrosinase and TPs, we analyzed the fluorescence quenching data using the Stern–Volmer equation.[47]2 [drawing 2] where F0 and F are the relative fluorescence intensities before and after the addition of inhibitor, respectively; κq is the bimolecular quenching rate constant; τ0 is the fluorescence lifetime at 10^−8 s for most biological macromolecules,[48] [Q] is the concentration of inhibitor and KSV is the Stern–Volmer quenching constant. The Stern–Volmer quenching constant (KSV) determined by linear regression of a curve of F0/F versus [Q] was plotted in Fig. 2 (inset). As listed in Table 1, the KSV value of ECG with less one hydroxyl group on ring B is much higher than that of EGCG. Good linear relationships in three Stern–Volmer plots of TPs are generally the indication of a single type of quenching manner. The calculated κq values by KSV/τ0 are 0.48 × 10^12, 4.10 × 10^12 and 3.13 × 10^12 M^−1 for catechin, ECG and EGCG, respectively. […] For static quenching mechanism, the binding site number (n) and association constant (KA) can be obtained by the following equation:[49]3 [drawing 3]

The test system is the same in assay [3]. The experiment in a line: Oximetry: oxygen utilization in oxidation of TPs by tyrosinase and of L-DOPA by the remaining tyrosinase. It is filed as biochemical. The note with it: for inactivation rate (k2) of tyrosinase / oxidation rate (k1): fit of oxygen utilization curve, 30 °C, pH 6.5; for partition ratio (r): molecules of inhibitor required to inactivate one molecule of tyrosinase: intercept on abscissa, ESI Fig. 3. Here is the method: The oxygen consumption in the process of tyrosinase interacting with TPs was monitored with the reported method.[28] Briefly, 0.4 mL of 8.2 mM TP was added to 19.2 mL phosphate buffer (pH 6.5). After equilibrating at 30 °C for 5 min, 0.4 mL of 500 unit per ml tyrosinase was injected to TP solution under continuous stirring. The decrease of oxygen was monitored with the dissolved oxygen meter. In order to evaluate the remaining activity of tyrosinase, L-DOPA was added to the above mixture of tyrosinase and TP after 5 minutes if no oxygen decreasing was observed, followed by monitoring the secondary oxygen utilization in the oxidation reaction of L-DOPA catalyzed by the remaining tyrosinase. The concentration of L-DOPA was 194 μM.
To further reveal tyrosinase inhibitory mechanisms of TPs, we monitored oxygen utilization against time starting from the injecting of TPs into tyrosinase solution using oximetry. The corresponding time-dependent curves of oxygen utilization are depicted in Fig. 4A. In the initial stage, the increase of oxygen utilization for TPs further corroborates that TPs could be oxidized by tyrosinase like-as substrate manner. The time-dependent curves of oxygen utilization can be better fitted with the following equation:[28]4 [drawing 4] where, Ut is the oxygen consumption at time t; E0 is the initial amount of tyrosinase; k1 and k2 are the oxidation rate and the inactivation rate of tyrosinase, respectively. As listed in Table 2, ECG and catechin can inactivate tyrosinase with inactivation rate (k2) of 0.018 and 0.016, respectively, while the inactivation rate of EGCG is ∼4 times lower than catechin. […] Furthermore, the catecholase activities of residual tyrosinase were evaluated by the oxygen utilization of L-DOPA. […] The slope (K) of oxygen consumption curve is positive proportional to the amount of residual tyrosinase.[64] Obviously, the remaining quantity of tyrosinase for EGCG is largest, while the residual amount is least for ECG. […] In this inactivation pathway, the catechol is converted to an intermediate by deprotonation and reductive elimination along with the leaving of forming Cu(0) from catalytic center, leading to the irreversible inactivation of tyrosinase.[28] However, the oxidation of ring B on EGCG or ring G on both ECG and EGCG (the pyrogallol group) catalyzed by tyrosinase should be competitive with the natural substrate (such as L-DOPA) through the diphenolase-like catalytic pathway (as shown in Fig. 5), because the three adjacent hydroxyl groups on the pyrogallol group having larger steric hindrance and worse orientation were unfavorable to the insert of additional oxygen on the aromatic ring.[28] Tyrosinase at last can be reactivated after catalyzing the oxidation of two molecules of EGCG, accounting for the lower inhibitory activity of EGCG than ECG and catechin. […] As shown in ESI Fig. 3 ^† (the intercept on abscissa), inactivating one molecule of tyrosinase requires 14.7 molecules of ECG or 38.7 molecules of catechin, being better consistent with their inactivation rate. The lower inactivation efficiency against tyrosinase explained that catechin has weaker inhibitory activity than ECG.

Where [4] appears, read: diphenolase activity, L-DOPA substrate, pH 6.5, 25 °C, read-out: IC50.

T1 sequence (C7FF04 1-392): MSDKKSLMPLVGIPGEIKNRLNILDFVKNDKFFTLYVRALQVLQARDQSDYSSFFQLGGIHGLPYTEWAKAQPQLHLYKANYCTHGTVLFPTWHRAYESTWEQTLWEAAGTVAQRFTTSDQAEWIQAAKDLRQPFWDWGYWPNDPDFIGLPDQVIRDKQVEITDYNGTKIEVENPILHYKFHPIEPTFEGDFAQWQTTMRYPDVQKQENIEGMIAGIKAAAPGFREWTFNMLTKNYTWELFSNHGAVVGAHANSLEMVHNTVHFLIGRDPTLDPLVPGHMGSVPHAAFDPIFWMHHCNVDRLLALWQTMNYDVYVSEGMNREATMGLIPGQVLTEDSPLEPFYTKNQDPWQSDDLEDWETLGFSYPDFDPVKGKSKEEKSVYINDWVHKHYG

As for `Oc1cc(O)c2c(c1)OC(c1ccc(O)c(O)c1)C(O)C2` (single isomer, unassigned; (+)) [Catechin, (+)-catechin], in assay [1] (setting [4]), the pIC50 is 4.24. In addition, in assay [2], the “association constant (KA)” value is reported as 0.04 × 10^5, the “bimolecular quenching constant (κq)” value is 4.8e+11 M⁻¹ s⁻¹, the “Stern–Volmer quenching constant (KSV)” value amounted to 4800 M⁻¹ and the “binding constant (KA)” value is 0.04 ×10^5. In assay [3], the “inactivation rate (k2) of tyrosinase” value is 0.016, the “oxidation rate (k1)” value is reported as 0.063 and the “partition ratio (r): molecules of inhibitor required to inactivate one molecule of tyrosinase” value stood at 38.7 molecules.

Compound `O=C(OC1Cc2c(O)cc(O)cc2OC1c1ccc(O)c(O)c1)c1cc(O)c(O)c(O)c1` (single isomer, unassigned; (-)) [ECG, (−)-epicatechin gallate] showed a pIC50 in assay [1] of 4.65. Moreover, the “tyrosinase inhibitory activity, fold stronger than that of EGCG” value in assay [1] (by IC50 values) turned out to be 6 fold. Also, in assay [2], the “association constant (KA)” value is 0.53 × 10^5, the “bimolecular quenching constant (κq)” value is 4.1e+12 M⁻¹ s⁻¹, the “Stern–Volmer quenching constant (KSV)” value came to 41000 M⁻¹ and the “binding constant (KA)” value was 0.53 ×10^5. In assay [3], the “inactivation rate (k2) of tyrosinase” value is on record as 0.018, the “oxidation rate (k1)” value was found to be 0.068 and the “partition ratio (r): molecules of inhibitor required to inactivate one molecule of tyrosinase” value was 14.7 molecules.

As for `O=C(OC1Cc2c(O)cc(O)cc2OC1c1cc(O)c(O)c(O)c1)c1cc(O)c(O)c(O)c1` (single isomer, unassigned; (-)) [EGCG, (−)-epigallocatechin-3-O-gallate], the pIC50 in assay [1] (setting [4]) was 3.85. In assay [2], the “association constant (KA)” value is 3.07 × 10^5, the “bimolecular quenching constant (κq)” value was 3.13e+12 M⁻¹ s⁻¹, the “Stern–Volmer quenching constant (KSV)” value was 31300 M⁻¹ and the “binding constant (KA)” value is recorded as 3.07 ×10^5. Moreover, in assay [3], the “inactivation rate, times lower than catechin” value was roughly 4 times; the “inactivation rate (k2) of tyrosinase” value turned out to be 0.004; the “oxidation rate (k1)” value came out at 0.007. Besides, in assay [3] (oxygen utilization, 194 μM L-DOPA added after TP), the “slope (K) of the residual tyrosinase oxidizing L-DOPA substrate” value amounted to 0.39.
